Measurements taken from paper PMC8691750, “Euphorbia Factor L2 ameliorates the Progression of K/BxN Serum-Induced Arthritis by Blocking TLR7 Mediated IRAK4/IKKβ/IRF5 and NF-kB Signaling Pathways” (Frontiers in Pharmacology, 2021).
“Also recorded” adds a separate entry of the source.

Experiments:
[1] = system: TLR7 (R837) induced cytokine production in PBMCs; assay: ELISA of IL-1β and IL-6 in supernatant of R837 stimulated PBMCs; assay type: cell-based, human; conditions: R837-stimulated human PBMCs
Method: (§1) RAW264.7 cells, a mouse macrophage cell line, were cultured in DMEM medium containing 10% fetal bovine serum (FBS), 1% penicillin-streptomycin and maintained at 37 °C in 5% CO2 humidified air. Bone marrow-derived macrophages (BMDMs) generation was performed as following description. In brief, bone marrow cells were harvested from tibias and femurs of C57BL/6 mice and differentiated for 7 days in DMEM medium supplemented with 10% FBS, 1% penicillin-streptomycin and 50 ng/ml M-CSF. For human peripheral blood mononuclear cells (PBMCs) preparation, 5 ml peripheral venous blood was obtained from healthy donors in West China Hospital. PBMCs were isolated with Human Lymphocyte Separation Medium (LTS1077, Tian Jing, China) according to the manufacturer’s instructions. The experimental protocols were performed according to the approved guidelines established by the Institutional Human Research Subject Protection Committee of the Ethics Committee of West China Hospital, Sichuan University, China.
RAW264.7 cells (5×10^5/ml), BMDMs (5×10^5/ml) and PBMCs (2×10^6/ml) were plated in 96-well plates and incubated overnight. […]
IL-4, IL-17A and TNF-α in sera from different group mice were measured using CBA Multiplex kit (BD, United States). The concentrations of IL-1β and IL-6 in serum or supernatant were detected by ELISA Kit (MULTI SCIENCES, China) according to the manufacturers’ instructions.

[2] = system: synovial hyperplasia and articular inflammatory cells infiltration in knee joints; assay: Histological assessment (H&E) of knee joints of STA mice; assay type: in vivo, C57BL/6 mice
Method: (§2) K/BxN serum was collected from K/BxN mice at 8 weeks of age, pooled, aliquoted and stored at -20 °C. K/BxN serum-transfer arthritis (STA) model was induced by intraperitoneal (i.p.) application of 150 μL of serum at day 0. Clinical score for arthritis severity was assessed using a 0–4 point scale for each paw at various time points (0–16 total score) as described previously ([Luo et al., 2011]). 8-week old male C57BL/6 mice were purchased from Dashuo Animal Center (China, Chengdu), maintained at 25°C, and exposed to 12-h light and dark cycles. Mice were fed with standard laboratory chow and water with 1 week of acclimatization. Naive mice were used as the control group. Except the control mice, all mice were i. p. injected with 150 μL of serum, then randomly divided into the following groups and treated with different compounds daily for the consecutive 8 days: 1) STA group; 2) Solvent control group, mice were gavaged with the solvent; 3) Dexamethasone (DEX) group, mice were gavaged with 30 mg/kg DEX; 4) EFL2 group 1, mice were gavaged with 40 mg/kg EFL2; 5) EFL2 group 2, mice were intraperitoneally injected with 15 mg/kg EFL2; 6) EFL2 group 3, […] were intraperitoneally injected with 40 mg/kg EFL2. […] All animal experiments were conducted in accordance with ethical regulation for animal care and use in China.
The left knee joints were removed on day 13 post STA and fixed in 4% formaldehyde overnight at 4°C. The tissues were decalcified in EDTA and sectioned after embedding in paraffin. 5 μm sections were deparaffinized with xylene, re-hydrated with 100, 95 and 80% ethanol and then stained with hematoxylin and eosin (H&E). Histopathological changes in the knee joints were measured using a semiquantitative scoring system (0–4 scale) to assess synovial hyperplasia and articular inflammatory cells infiltration as previously described ([Yamanishi et al., 2002]).

[3] = system: K/BxN serum-transfer arthritis (STA) model; assay: K/BxN serum-transfer arthritis (STA) model, arthritic index / clinical score; assay type: in vivo, C57BL/6 mice; conditions: STA mice
Method: as §2

[4] = system: PBMCs; assay: Cell viability, CCK8 assay, PBMCs; assay type: cell-based, human; conditions: CCK8, at 100 μM
Method: as §1
The effects of EFL2 on RAW264.7 cells, BMDMs and PBMCs viability were evaluated by Cell Counting Kit-8 (CCK8) assay (Dojindo, Japan). […] The optical absorbance at 450 nm was read with a Biotek Eon™ microplate reader (Biotek, Vermont, United States).

[5] = molecular target: T1, IRF5 (Mus musculus, UniProt P56477); assay: IRF5 plasmid transfection (overexpression) in RAW264.7 cells; assay type: cell-based; conditions: RAW264.7 transfected with IRF5 plasmid
T1 construct: host or cells: RAW264.7
Method: RAW264.7 cells (4×10^5 cells/well) were seeded into 6-well plates before transfection with the plasmid. When cells confluency reached 60%, RAW264.7 cells were transfected with plasmid IRF5-mouse vector (Origene, United States) using TransEasy™ Transfection Reagent (FOREGENE, China). IRF5 plasmid was suspended with transfection reagent as 1:1.5. Cells were incubated at 37°C for 24 h, then treated with EFL2 and R837 for another 24 h. The supernatant was collected for IL-1β and IL-6 measurements using ELISA kits as described above. For western blot detection, RAW264.7 cells were pretreated with EFL2 (10 µM) for 1 h and stimulated with R837 (20 μg/ml) for 40 min after IRF5 plasmid transfection. Cell lysates were prepared as described above.

T1 sequence (P56477 whole entry): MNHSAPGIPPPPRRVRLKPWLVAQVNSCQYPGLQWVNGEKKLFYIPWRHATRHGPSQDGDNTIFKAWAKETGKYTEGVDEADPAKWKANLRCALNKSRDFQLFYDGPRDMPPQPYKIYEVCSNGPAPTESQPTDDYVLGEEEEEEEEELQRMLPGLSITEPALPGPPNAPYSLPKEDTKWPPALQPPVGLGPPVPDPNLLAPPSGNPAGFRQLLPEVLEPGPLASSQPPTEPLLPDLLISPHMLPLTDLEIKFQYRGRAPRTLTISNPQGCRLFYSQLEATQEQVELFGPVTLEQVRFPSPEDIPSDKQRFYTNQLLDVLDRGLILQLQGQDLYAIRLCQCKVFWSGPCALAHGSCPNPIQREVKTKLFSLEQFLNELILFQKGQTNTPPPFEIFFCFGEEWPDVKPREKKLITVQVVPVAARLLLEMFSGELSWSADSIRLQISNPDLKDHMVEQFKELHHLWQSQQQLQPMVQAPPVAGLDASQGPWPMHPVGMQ

## C=C1C(OC(=O)c2ccccc2)CC2C(C=C(C)C(=O)C3(OC(C)=O)CC(C)C(OC(=O)c4ccccc4)C3C1OC(C)=O)C2(C)C (stereo not drawn) [EFL2, Euphorbia factor L2]
[1]
  suppressive effect on IL-1β production compared with IL-6: prior to that on IL-6
[2]; EFL2 15 mg/kg i.p.
  inflammatory cells infiltration and synovium hyperplasia in joints: only partially reduced
[2]; EFL2 40 mg/kg i.p.
  inflammatory status and inflamed synovium in joints: significantly inhibited
[3]; EFL2 15 mg/kg i.p. daily, particularly acute phase
  arthritis symptoms (clinical score): to a moderate extent, alleviated
[3]; EFL2 40 mg/kg i.p. daily
  joint swelling and redness (clinical score): dramatically improved
[3]; EFL2 40 mg/kg oral (gavage) daily, 40 mg/kg
  arthritis severity (clinical score): did not affect; also recorded: hardly improved
[4]
  PBMCs viability: did not affect
[5]; EFL2 10 μM, R837
  suppressive effect of EFL2 on nuclear translocation of IRF5 after overexpression of IRF5: significantly reversed
[5]; EFL2 and R837 24 h
  EFL2-induced reduction of IL-1β and IL-6 after overexpression of IRF5: effectively reversed
